Here are results for three molecules from PMC7084495, “Discovery of 1-Pyrimidinyl-2-Aryl-4,6-Dihydropyrrolo [3,4-d]Imidazole-5(1H)-Carboxamide as a Novel JNK Inhibitor” (International Journal of Molecular Sciences, 2020).

The structures appear in SMILES notation.

The test concerns the target T1, JNK3 (h) (Homo sapiens, UniProt P53779).
T1 construct: purchased Reaction Biology Corp. (Kinase HotSpot service)
Description: JNK3 kinase inhibition, Reaction Biology Kinase HotSpot radiometric assay. Format: biochemical. As to conditions: enzymatic activity; ATP 10 μM. The source says: (specific activity approx. 500 cpm/pmol, concentration as required).

T1 sequence (P53779 whole entry): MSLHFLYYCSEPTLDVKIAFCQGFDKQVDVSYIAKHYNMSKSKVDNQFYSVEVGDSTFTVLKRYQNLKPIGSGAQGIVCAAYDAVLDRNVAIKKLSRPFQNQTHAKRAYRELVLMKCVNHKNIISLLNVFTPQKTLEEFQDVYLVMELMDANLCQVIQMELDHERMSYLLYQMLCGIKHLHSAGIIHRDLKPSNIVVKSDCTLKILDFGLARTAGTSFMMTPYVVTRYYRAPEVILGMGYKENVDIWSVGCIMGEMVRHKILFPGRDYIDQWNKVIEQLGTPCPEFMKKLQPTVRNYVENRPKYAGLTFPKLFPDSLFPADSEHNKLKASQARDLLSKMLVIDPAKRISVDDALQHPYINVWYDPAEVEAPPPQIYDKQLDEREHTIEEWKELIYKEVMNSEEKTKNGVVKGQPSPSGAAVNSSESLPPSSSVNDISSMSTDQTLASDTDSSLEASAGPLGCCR

For `NC(=O)N1Cc2nc(-c3ccc(Cl)c(Cl)c3)n(-c3ccnc(N[C@H]4CCCN(C(=O)C5CC5)C4)n3)c2C1` [Compound 17a, (S)-1-(2-((1-(Cyclopropanecarbonyl)Piperidin-3-yl)Amino)Pyrimidin-4-yl)-2-(3,4-Dichlorophenyl)-4,6-Dihydropyrrolo[3,4-d]Imidazole-5(1H)-Carboxamide], the IC50 (usually the midpoint of a concentration-inhibition curve) worked out at 0.0104 µM. Next, `O=C(C1CC1)N1CCC[C@H](Nc2nccc(-n3c(-c4ccc(Cl)c(Cl)c4)nc4c3CN(C(=O)N3CCC(O)CC3)C4)n2)C1` [Compound 22a, (S)-(1-(2-((1-(Cyclopropanecarbonyl)piperidin-3-yl)amino)pyrimidin-4-yl)-2-(3,4-dichlorophenyl)-4,6-dihydropyrrolo[3,4-d]Imidazol-5(1H)-yl)(4-hydroxypiperidin-1-yl)methanone]: 0.0186 µM; `NC(=O)N1Cc2nc(-c3ccc4c(c3)OCO4)n(-c3ccnc(N[C@H]4CCCN(C(=O)C5CCC5)C4)n3)c2C1` [Compound 20c, (S)-2-(Benzo[d][1,3]Dioxol-5-yl)-1-(2-((1-(Cyclobutanecarbonyl)Piperidin-3-yl)Amino)Pyrimidin-4-yl)-4,6-Dihydropyrrolo[3,4-d]Imidazole-5(1H)-Carboxamide]: 0.225 µM.
